Source: patent US20030148285A1, “Mammalian SIMP protein, gene sequence and uses thereof in cancer therapy” (priority 2001, published 2003)

Assays:
[1] = tested on: B6^dom1-specific T-cells (C3H.SW target cells coated with synthetic peptides); settings: previously shown; cited from earlier work
[2] = tested on: B6^dom1-specific T-cells (C3H.SW target cells coated with synthetic peptides); assay: 51Cr release cytotoxicity assay: peptide recognition by C3H.SW anti-C57BL/6 CTLs; format: cell-based, mouse; settings: effector to target ratio 50:1, FIG. 1
Method: Cytotoxic activity was assessed in a standard ^51Cr release assay (Pion et al., 1997. Eur. J. Immunol. 27:421-430). Target blast cells, prepared by culturing C3H.SW spleen cells (3×10^6/ml) with 5 μg/ml of Concanavalin A (Con A; Sigma Chemical Co., St-Louis, Mo.) for 48 hours, were labeled with 100 μCi Na2^51Cr (Dupont Co., Wilmington, Del.) for 90 minutes, sensitized with synthetic peptides for 90 minutes, then mixed with C3H.SW anti-C57BL/6 effector cells at a 50:1 effector to target ratio. Cells were then incubated for 4 hours at 37° C. in a humidified atmosphere of 5% CO2. Afterwards, supernatants were harvested and counted in a gamma counter. All tests were done in triplicate. Spontaneous release was below 15%. Results are expressed as a percentage of specific lysis calculated as follows: % specific lysis=100×(experimental release−spontaneous release)/(maximum release−spontaneous release).

AAPDNRETF
Recognition by B6^dom1-specific T-cells [1]: recognised by B6^dom1-specific T-cells

KAPDNRDTL [synthetic peptide; product of the putative B6^dom1 allele found in B6^dom1− strains of mice]
Recognition by B6^dom1-specific CTLs (specific lysis of peptide-coated C3H.SW targets) ([2]; peptide even at 10^−5 M): not recognised

KAPDNRETL [synthetic peptide]
Recognition by B6^dom1-specific CTLs (specific lysis of peptide-coated C3H.SW targets) ([2]; peptide at 10^−8 M): recognised more efficiently than the AAPDNRETF peptide
